This note sets out measurements from paper PMC9501232, “Novel 4-Azapregnene Derivatives as Potential Anticancer Agents: Synthesis, Antiproliferative Activity and Molecular Docking Studies” (Molecules, 2022).

Experiment [1] relates to NHDF cells (Normal Human Dermal Fibroblasts). Put plainly: MTT cell proliferation assay, NHDF. The class given is cell-based. To be noted: 72 h. The protocol: (§1) Cell lines, namely LNCaP, PC-3, T47-D and NHDF were obtained from American Type Culture Collection (ATCC; Manassas, VA, USA) and cultured in 75 cm^2 culture flasks at 37 °C in a humidified air incubator with 5% CO2. LNCaP, PC-3 and T47-D cells, which were used in passages 20th to 27th, 25th to 29th and 10th to 15th, respectively, were cultured in RPMI 1640 medium (Sigma-Aldrich, Inc., St. Louis, MO, USA) with 10% fetal bovine serum (FBS; Sigma-Aldrich, Inc. St. Louis, MO, USA) and 1% of the antibiotic mixture of 10,000 IU/mL penicillin G and […] of streptomycin (Sp, Sigma-Aldrich, Inc. St. Louis, MO, USA). Finally, NHDF cells (Normal Human Dermal Fibroblasts) were cultured in RPMI 1640 medium supplemented with 10% FBS, 2 mM L-glutamine, 10 mM HEPES, 1 mM sodium pyruvate and 1% of an antibiotic/antimycotic mixture (10,000 U/mL penicillin G, 100 mg/mL streptomycin and 25 µg/mL amphotericin B) (Ab; Sigma-Aldrich, Inc. St. Louis, MO, USA), and these cells were used in passages 10 to 12. For all cell types, the medium was renewed every 2–3 days until cells reach nearly the confluence state. Then, they were detached gently by trypsinization (trypsin-EDTA solution: 0.125 g/L of trypsin and 0.02 g/L of EDTA).
(§2) All the stock solutions were prepared by dissolving compounds in dimethyl sulfoxide (DMSO; Sigma-Aldrich, Inc., St. Louis, MO, USA) at 10 mM and stored at 4 °C. From these solutions, the several diluted compounds solutions in different concentrations were freshly prepared in a complete culture medium before each experiment.
(§3) As previously referred, cells were trypsinized after reaching a near confluence state and counted by the trypan blue exclusion assay in a Neubauer chamber. Then, 100 µL of cell suspension/well with an initial density of 2 × 10^4 cells/mL were seeded in 96-well culture plates (Nunc, Apogent, Denmark) and left to adhere for 48 h. After cells adherence, the medium was replaced by the distinct solutions of the compounds in the study (30 µM for preliminary studies and 0.01, 0.1, 1, 10, 50 and 100 µM for concentration–response studies) in the appropriate medium for approximately 72 h. 5-FU and finasteride were used as positive controls and untreated cells were used as the negative control. Each experiment was performed in quadruplicate and independently performed at least two times. The in vitro antiproliferative effects were evaluated by the MTT assay (Sigma-Aldrich, Inc. St. Louis, USA). After the incubation period, the medium was removed and 100 µL of phosphate buffer saline (NaCl 137 mM, KCl 2.7 mM, Na2HPO4 10 mM and KH2PO4 1.8 mM in deionized water and pH adjusted to 7.4) were used to wash the cells. Then, 100 µL of the MTT solution (5 mg/mL) was prepared in the appropriate serum-free medium and was added to each well, followed by incubation for 4 h at 37 °C. Hereafter, the MTT containing medium was removed and the formazan crystals were dissolved in DMSO. Then the absorbance was measured at 570 nm using a microplate spectrophotometer BIO-RAD xMarkTM. Cell viability values were expressed as percentages relative to the absorbance determined in the cells used as negative controls.
(§4) The data are expressed as a mean ± standard deviation (SD) and differences between groups were considered statistically significant when p < 0.05. The IC50 values were determined through sigmoidal fitting analysis with variable slope and considering a 95% confidence level. All data shown are representative of at least two independent experiments.

The subject of the next experiment is PC-3 cells. As to the kind of experiment: MTT cell proliferation assay, PC-3. The class given is cell-based, human. The protocol: as §1, §2, §3, §4

Regarding `C[C@]12CC[C@H]3[C@@H](CC=C4NC(=O)CC[C@@]43C)[C@@H]1CC[C@@H]2C(=O)/C=C/c1cccnc1` [Compound 3g, 21E-[(Pyridin-3-yl)methylidene]-4-azapregn-5-ene-3,20-dione], the “MTT screening, cell proliferation” value in experiment [1] (30 µM, average ± SD) is on record as 23.8 ± 3.2 percentage of negative control; in the experiment on PC-3 cells (PC-3, 30 µM, 72 h, average ± SD), 0.1 ± 0.1 percentage of negative control. Also, the half-maximal inhibitory concentration (IC50) in experiment [1] (Homo sapiens, MTT) worked out at 3.09 µM; in the experiment on PC-3 cells (Homo sapiens, PC-3, 72 h, MTT) it was 3.64 µM.
